Measurements as given in US6903114B2, “Derivatives of naphthalene with COMT inhibiting activity” (Orion Corporation, priority 2000, dated 2005).

These compounds were tested against T1, S-COMT enzyme (Homo sapiens, UniProt P21964) (assay: Determination of COMT activity (IC50)). Conditions: S-COMT about 30 nM, 3 mM dopamine substrate, 0.05 mM AdoMet, 5 mM MgCl2, pH 7.4, 37° C., 15 min; HPLC.
T1 sequence (P21964 1-221 isoform P21964-2): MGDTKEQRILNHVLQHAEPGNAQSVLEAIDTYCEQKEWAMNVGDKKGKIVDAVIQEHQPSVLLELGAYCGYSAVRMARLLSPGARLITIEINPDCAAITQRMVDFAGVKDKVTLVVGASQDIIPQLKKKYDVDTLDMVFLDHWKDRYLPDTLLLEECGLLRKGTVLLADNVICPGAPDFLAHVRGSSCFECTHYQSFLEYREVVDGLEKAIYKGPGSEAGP
Assay type: biochemical
Method: EXPERIMENT I: Determination of COMT activity (IC50)
The determination of IC50 was performed by measuring the COMT activity in a test sample which contained S-COMT enzyme (about 30 nM), 3 mM dopamine (as the substrate of COMT), 5 mM magnesium chloride, 0.05 mM S-adenosyl-L-methionine (AdoMet) and a test compound of the invention at various concentrations in 0.1 M phosphate buffer, pH 7.4, at 37° C.
The reaction in the test sample was initiated by adding the dopamine substrate to the sample mixture and, after incubation for 15 min at 37° C., the reaction was stopped with 4 M perchloric acid and stabilized further 10 min in ice bath. Thereafter the precipitated proteins were removed by centrifugation (4000×G for 10 min). The activity of COMT enzyme was measured by determining the concentration of the reaction products, 3-methyldopamine and 4-methyldopamine, by HPLC. The results were calibrated with 3-methyldopamine standards. See also T. Lotta et al., Biochemistry, vol.34(13), 1995, p.4204. The IC50 value is the concentration of the test compound which causes a 50% decrease in COMT activity.

Row | SMILES | IC50 [nM]
1 | N#Cc1c(O)c(O)cc2ccccc12 [Example 13, 2,3-Dihydroxy-naphthalene-1-carbonitrile] | 100
2 | O=[N+]([O-])c1c(O)c(O)cc2ccccc12 [Example 1, 1-Nitronaphthalene-2,3-diol] | 30
3 | CN1CCN(C(=O)c2ccc3c([N+](=O)[O-])c(O)c(O)cc3c2)CC1 [Example 14, (6,7-Dihydroxy-5-nitro-naphthalen-2-yl)-(4-methyl-piperazin-1-yl)-methanone] | 15
4 | CCCCCCC(=O)c1ccc2c([N+](=O)[O-])c(O)c(O)cc2c1 [Example 9, 1-(6,7-Dihydroxy-5-nitro-naphthalen-2-yl)-heptan-1-one] | 80
5 | O=[N+]([O-])c1ccc2c([N+](=O)[O-])c(O)c(O)cc2c1 [Example 10, 1,6-Dinitro-naphthalene-2,3-diol] | 15
6 | CC(C)Cc1ccc2c([N+](=O)[O-])c(O)c(O)cc2c1 [Example 5, 6-Isobutyl-1-nitro-naphthalene-2,3-diol] | 45
7 | O=C(c1ccccc1)c1ccc2c([N+](=O)[O-])c(O)c(O)cc2c1 [Example 3, (6,7-Dihydroxy-5-nitro-naphthalen-2-yl)-phenyl-methanone] | 80
8 | O=Cc1c(O)c(O)cc2ccccc12 [Example 8, 2,3-Dihydroxy-naphthalene-1-carbaldehyde] | 200
9 | CC(C)C(=O)c1ccc2c([N+](=O)[O-])c(O)c(O)cc2c1 [Example 4, 1-(6,7-Dihydroxy-5-nitro-naphthalen-2-yl)-2-methyl-propan-1-one] | 25
10 | CCCN(CCC)S(=O)(=O)c1ccc2c([N+](=O)[O-])c(O)c(O)cc2c1 [Example 11, 6,7-Dihydroxy-5-nitro-naphthalene-2-sulfonic Acid Dipropylamide] | 25
11 | O=C(O)c1ccc2c([N+](=O)[O-])c(O)c(O)cc2c1 [Example 7, 6,7-Dihydroxy-5-nitro-naphthalene-2-carboxylic Acid] | 30
12 | O=[N+]([O-])c1c(O)c(O)c(Br)c2ccncc12 [Example 15, 5-Bromo-6,7-dihydroxy-8-nitro-isoquinolinium; Bromide] | 140
